The source made the active and inactive calls. The calls are words filed in the database; no cut-off is given here.
Test system: U-937
Assay: Induction of apoptosis in human U937 cells
Type: functional, cell-based

| Structure (SMILES) | Activity |
| --- | --- |
| C[N+](C)(C)CCc1cc(Br)c(O)c(Br)c1 | inactive |
| N#CC(=O)NCCCOc1c(Br)cc(CCN)cc1Br | inactive |
| N#CC(=O)NCCCOc1c(Br)cc(C(O)CN)cc1Br (centres undefined) | inactive |
| NCCCOc1c(Br)cc(CCN)cc1Br | inactive |

— ChEMBL document CHEMBL1144079, “7-Hydroxyceratinamine, a new cyanoformamide-containing metabolite from a sponge, Aplysinella sp” (J Nat Prod, 1999)
